Data: PMC7887755, “Structure–Activity Relationships of Pyrazolo[1,5-a]pyrimidin-7(4H)-ones as Antitubercular Agents” (ACS Infectious Diseases, 2021)
Converted amounts (≈) assume the structure as drawn. “And” between values parts separate entries of the source, which are not always exact repeats. Equal values may be shown once. Read-outs that look alike come from different tables or passages of the source.

How the values were obtained:
[1] = test system: Mtb H37Rv; experiment: microbe, parasite or virus in culture; type: cell-based, Mycobacterium tuberculosis
[2] = test system: HepG2 cells; details: 24 h
[3] = test system: Mtb strain H37Rv; experiment: MIC against Mtb H37Rv under various media/carbon sources; type: cell-based; details: Mycobacterium tuberculosis
[4] = test system: cell wall responsive iniBAC promoter (piniB-LUX reporter strain); type: cell-based, Mycobacterium tuberculosis
[5] = test system: DNA damage responsive recA and radA reporters; type: cell-based, Mycobacterium tuberculosis
[6] = test system: Mtb H37Rv; experiment: MIC under iron-depleted (DFO) or iron-replete (FeCl3) conditions; type: cell-based, Mycobacterium tuberculosis
[7] = test system: Mtb H37Rv WT; experiment: microbe, parasite or virus in culture; type: cell-based; details: Mycobacterium tuberculosis
[8] = in vitro; details: human, 24 h
[9] = Microsomal stability, mouse; type: in vitro ADME; details: liver microsomes of female mouse, read-out: % Remaining after 2 h incubation Mouse
Protocol: (§1) % Remaining after 2 h incubation
(§2) Compound Chemical Structure
(§3) Table S1. Microsomal stability of some pyrazolo[1,5-a]pyrimidin-7(4H)-one derivatives
(§4) Microsomal stability was tested in microsomes from liver of female mouse (M9566 from Sigma-Aldrich)a or microsomes
(§5) from human liver (M0317 from Sigma-Aldrich)b.

[10] = Microsomal stability, human; type: in vitro ADME; details: human liver microsomes, read-out: % Remaining after 2 h incubation Human
Protocol: as §1, §2, §3, §4, §5

[11] = read-out: Cytotoxicity (IC50) Galactose, HepG2 cells in DMEM/10% FBS with galactose
[12] = read-out: Cytotoxicity (IC50) Glucose, HepG2 cells in DMEM/10% FBS supplemented with glucose
[13] = Mycobacterium tuberculosis, H37RV, read-out: MIC in 7H9 ADC
[14] = Mycobacterium tuberculosis, H37RV, read-out: MIC in 7H9 GCas
[15] = pH 6, read-out: MIC nitrate/butyrate
[16] = Cytotoxicity (IC50) Galactose, HepG2 cells in DMEM/10% FBS with galactose
[17] = Cytotoxicity (IC50) Glucose, HepG2 cells in DMEM/10% FBS supplemented with glucose

Compound	MIC ([1]; read-out: MIC in 7H9 GCas)	MIC [1, 13]	MIC [1, 14]	IC50 [8, 16]	IC50 [8, 17]	other results
2-Methyl-3-phenyl-5-(pyrazin-2-yl)pyrazolo[1,5-a]pyrimidin-7(4H)-one [Compound P15]	12.5 µM	–	–	–	–	MIC ([1]; read-out: MIC in 7H9 ADC): 50.0 µM and 50 µM; IC50 [2, 11]: > 100 µM; IC50 [2, 12]: > 100 µM
2-Methyl-3-phenyl-5-(pyridin-3-yl)pyrazolo[1,5-a]pyrimidin-7(4H)-one [Compound P13]	12.5 µM	–	–	–	–	MIC ([1]; read-out: MIC in 7H9 ADC): 50.0 µM and 50 µM; IC50 [2, 11]: > 100 µM; IC50 [2, 12]: > 100 µM
5-(2-Fluorophenyl)-2-methyl-3-phenylpyrazolo[1,5-a]pyrimidin-7(4H)-one [Compound P16]	3.12 µM	–	–	–	–	MIC ([1]; read-out: MIC in 7H9 ADC): 12.5 µM; IC50 [2, 11]: > 100 µM; IC50 [2, 12]: > 100 µM
5-(3-Fluorophenyl)-2-methyl-3-phenylpyrazolo[1,5-a]pyrimidin-7(4H)-one [Compound P17]	1.56 µM	–	–	–	–	MIC ([1]; read-out: MIC in 7H9 ADC): 6.25 µM; IC50 [2, 11]: 93.8 µM; IC50 [2, 12]: > 100 µM
5-(4-Fluorophenyl)-2-methyl-3-phenylpyrazolo[1,5-a]pyrimidin-7(4H)-one [Compound P18]	1.56 µM	–	–	–	–	MIC ([1]; read-out: MIC in 7H9 ADC): 6.25 µM; IC50 [2, 11]: > 100 µM; IC50 [2, 12]: > 100 µM
5-(Furan-3-yl)-2-methyl-3-phenylpyrazolo[1,5-a]pyrimidin-7(4H)-one [Compound P14]	3.12 µM	–	–	–	–	MIC ([1]; read-out: MIC in 7H9 ADC): 25.0 µM and 25 µM; IC50 [2, 11]: > 100 µM; IC50 [2, 12]: > 100 µM
5-Cyclohexyl-2-methyl-3-phenylpyrazolo[1,5-a]pyrimidin-7(4H)-one [Compound P11]	>100 µM	–	–	–	–	MIC ([1]; read-out: MIC in 7H9 ADC): >100 µM; IC50 [2, 11]: > 100 µM; IC50 [2, 12]: > 100 µM
5-Isobutyl-2-methyl-3-phenylpyrazolo[1,5-a]pyrimidin-7(4H)-one [Compound P12]	12.5 µM	–	–	–	–	MIC ([1]; read-out: MIC in 7H9 ADC): 100 µM; IC50 [2, 11]: > 100 µM; IC50 [2, 12]: > 100 µM
O=c1cc(CC2CCCCC2)[nH]c2c(-c3ccc(Cl)cc3)cnn12 [Compound 2, 3-(4-Chlorophenyl)-5-(cyclohexylmethyl)pyrazolo[1,5-a]pyrimidin-7(4H)-one, reference compound]	–	9.38 µM (≈ 3.21 µg/mL)	0.78 µM (≈ 0.267 µg/mL)	–	–	MIC ([3]; GAST/Fe, read-out: MIC GAST): 19 µM (≈ 6.49 µg/mL); MIC [3, 15]: 6.25 µM (≈ 2.14 µg/mL); MIC ([3]; read-out: MIC 7H9): 19 µM (≈ 6.49 µg/mL); MIC ([3]; read-out: MIC Chol): 12.5 µM (≈ 4.27 µg/mL); MIC ([3]; read-out: MIC GBSA/DBSA): 4.7 µM (≈ 1.61 µg/mL); reporter gene assay cell wall [4]: no; reporter gene assay DNA damage [5]: no; increase in potency under iron-depleted conditions (MIC ratio) [6]: greater efficacy under iron-limited conditions; MIC [7]: 0.39 µM (≈ 0.133 µg/mL)
COc1ccc(-c2cc(=O)n3nc(C)c(-c4ccc(F)cc4)c3[nH]2)cc1 [Compound 4, 3-(4-Fluorophenyl)-5-(4-methoxyphenyl)-2-methylpyrazolo[1,5-a]pyrimidin-7(4H)-one, reference compound]	–	9.38 µM (≈ 3.28 µg/mL)	3.12 µM (≈ 1.09 µg/mL)	–	–	MIC ([3]; GAST/Fe, read-out: MIC GAST): 3.13 µM (≈ 1.09 µg/mL); MIC [3, 15]: 6.25 µM (≈ 2.18 µg/mL); MIC ([3]; read-out: MIC 7H9): 12.5 µM (≈ 4.37 µg/mL); MIC ([3]; read-out: MIC Chol): 12.5 µM (≈ 4.37 µg/mL); MIC ([3]; read-out: MIC GBSA/DBSA): 9.4 µM (≈ 3.28 µg/mL); reporter gene assay cell wall [4]: no; reporter gene assay DNA damage [5]: no; increase in potency under iron-depleted conditions (MIC ratio) [6]: ≤ 2 fold; MIC [7]: 1.56 µM (≈ 0.545 µg/mL)
COc1cc(-c2ccccc2)nc2c(-c3ccccc3)c(C)nn12 [Compound P1, 7-Methoxy-2-methyl-3,5-diphenylpyrazolo[1,5-a]pyrimidine]	–	100 µM (≈ 31.5 µg/mL)	> 100 µM	–	–	–
Cc1nn2c(=O)cc(-c3ccccc3)n(C)c2c1-c1ccccc1 [Compound P2, 2,4-Dimethyl-3,5-diphenylpyrazolo[1,5-a]pyrimidin-7(4H)-one]	50 µM (≈ 15.8 µg/mL)	> 100 µM	50 µM (≈ 15.8 µg/mL)	–	–	–
O=c1[nH]n2c(=O)cc(-c3ccccc3)[nH]c2c1-c1ccccc1 [Compound P3, 3,5-Diphenylpyrazolo[1,5-a]pyrimidine-2,7(1H,4H)-dione]	–	> 100 µM	> 100 µM	–	–	–
Nc1nn2c(=O)cc(-c3ccccc3)[nH]c2c1-c1ccccc1 [Compound P4, 2-Amino-3,5-diphenylpyrazolo[1,5-a]pyrimidin-7(4H)-one]	25 µM (≈ 7.56 µg/mL)	28.1 µM (≈ 8.5 µg/mL)	25 µM (≈ 7.56 µg/mL)	–	–	–
Cc1nn2c(=O)nc(-c3ccccc3)[nH]c2c1-c1ccccc1 [Compound P5, 7-Methyl-2,8-diphenylpyrazolo[1,5-a][1,3,5]triazin-4(1H)-one]	50 µM (≈ 15.1 µg/mL)	> 100 µM	50 µM (≈ 15.1 µg/mL)	–	–	–
Cc1nn2c(=O)c(C)c(-c3ccccc3)[nH]c2c1-c1ccccc1 [Compound P6, 2,6-Dimethyl-3,5-diphenylpyrazolo[1,5-a]pyrimidin-7(4H)-one]	–	43.8 µM (≈ 13.8 µg/mL)	3.12 µM (≈ 0.984 µg/mL)	> 100 µM	> 100 µM	–

Compound	MIC ([1]; read-out: MIC in 7H9 GCas)	MIC [1, 13]	MIC [1, 14]	IC50 [8, 16]	IC50 [8, 17]	other results
Cc1nn2c(=O)c(C(F)(F)F)c(-c3ccccc3)[nH]c2c1-c1ccccc1 [Compound P7, 2-Methyl-3,5-diphenyl-6-(trifluoromethyl)pyrazolo[1,5-a]pyrimidin-7(4H)-one]	–	12.5 µM (≈ 4.62 µg/mL)	3.12 µM (≈ 1.15 µg/mL)	–	–	–
Cc1nn2c(=O)cc(Cc3ccccc3)[nH]c2c1-c1ccccc1 [Compound P8, 5-Benzyl-2-methyl-3-phenylpyrazolo[1,5-a]pyrimidin-7(4H)-one]	–	75 µM (≈ 23.7 µg/mL)	3.12 µM (≈ 0.984 µg/mL)	> 100 µM	> 100 µM	MIC ([1]; read-out: MIC in 7H9 ADC): 75 µM (≈ 23.7 µg/mL)
Cc1nn2c(=O)cc(CC3CCCCC3)[nH]c2c1-c1ccccc1 [Compound P9, 5-(Cyclohexylmethyl)-2-methyl-3-phenylpyrazolo[1,5-a]pyrimidin-7(4H)-one]	–	> 100 µM	> 100 µM	50.5 µM	85.8 µM	–
Cc1nn2c(=O)cc(CN3CCOCC3)[nH]c2c1-c1ccccc1 [Compound P10, 2-Methyl-5-(morpholinomethyl)-3-phenylpyrazolo[1,5-a]pyrimidin-7(4H)-one]	–	> 100 µM	> 100 µM	> 100 µM	> 100 µM	–
Cc1nn2c(=O)cc(-c3ccc(Cl)c(Cl)c3)[nH]c2c1-c1ccccc1 [Compound P20, 5-(3,4-Dichlorophenyl)-2-methyl-3-phenylpyrazolo[1,5-a]pyrimidin-7(4H)-one]	–	2.34 µM (≈ 0.866 µg/mL)	1.56 µM (≈ 0.578 µg/mL)	55.7 µM	> 100 µM	improvement in MIC compared to the initial hit 1 [1]: 5 fold; remaining at 2 h [9]: 41%; remaining at 2 h [10]: 55%
Cc1nn2c(=O)cc(-c3ccccc3)[nH]c2c1C [Compound P21, 2,3-Dimethyl-5-phenylpyrazolo[1,5-a]pyrimidin-7(4H)-one]	–	> 100 µM	12.5 µM (≈ 2.99 µg/mL)	> 100 µM	> 100 µM	–
O=c1cc(-c2ccccc2)[nH]c2c(-c3ccccc3)cnn12 [Compound P22, 3,5-Diphenylpyrazolo[1,5-a]pyrimidin-7(4H)-one]	–	12.5 µM (≈ 3.59 µg/mL)	6.25 µM (≈ 1.8 µg/mL)	> 100 µM	> 100 µM	–
CC(C)c1nn2c(=O)cc(-c3ccccc3)[nH]c2c1-c1ccccc1 [Compound P23, 2-Isopropyl-3,5-diphenylpyrazolo[1,5-a]pyrimidin-7(4H)-one]	–	> 100 µM	12.5 µM (≈ 4.12 µg/mL)	86.2 µM	> 100 µM	–
O=c1cc(-c2ccc(F)c(F)c2)[nH]c2c(-c3ccc(Cl)cc3)cnn12 [Compound P26, 3-(4-Chlorophenyl)-5-(3,4-difluorophenyl)pyrazolo[1,5-a]pyrimidin-7(4H)-one]	–	12.5 µM (≈ 4.47 µg/mL)	12.5 µM (≈ 4.47 µg/mL)	18.5 µM	57.2 µM	potency relative to P25 [1]: 4 fold
O=c1cc(-c2ccc(F)c(F)c2)[nH]c2c(-c3ccccc3)c(C(F)(F)F)nn12 [Compound P27, 5-(3,4-Difluorophenyl)-3-phenyl-2-(trifluoromethyl)pyrazolo[1,5-a]pyrimidin-7(4H)-one]	–	> 100 µM	100 µM (≈ 39.1 µg/mL)	> 100 µM	> 100 µM	–
[Cl][Fe]([Cl])[Cl] [FeCl3]	–	–	–	–	–	MIC ([6]; MIC of the iron-modulating additive itself): 500 µM
NNC(=O)c1ccncc1 [INH, isoniazid, reference compound]	–	0.23 µM (≈ 0.0315 µg/mL)	0.16 µM (≈ 0.0219 µg/mL)	–	–	MIC ([3]; GAST/Fe, read-out: MIC GAST): 0.1 µM (≈ 0.0137 µg/mL); MIC ([3]; read-out: MIC 7H9): 0.39 µM (≈ 0.0535 µg/mL); MIC ([3]; read-out: MIC Chol): 0.2 µM (≈ 0.0274 µg/mL); MIC ([3]; read-out: MIC GBSA/DBSA): 0.3 µM (≈ 0.0411 µg/mL); MIC [7]: 0.04 µM (≈ 0.00549 µg/mL)
COc1c(N2C[C@@H]3CCCN[C@@H]3C2)c(F)cc2c(=O)c(C(=O)O)cn(C3CC3)c12 [MOX, moxifloxacin]	–	–	–	–	–	reporter gene assay DNA damage [5]: yes
CC(C)=CCC/C(C)=C/CNCCNC1C2CC3CC(C2)CC1C3 (centres unmarked) [SQ109]	–	–	–	–	–	reporter gene assay cell wall [4]: yes
CC/C(=C(\c1ccccc1)c1ccc(OCCN(C)C)cc1)c1ccccc1 [Tamoxifen, reference compound]	–	–	–	5.93 µM	4.18 µM	–
Antimycin [reference compound]	–	–	–	–	–	IC50 [2, 11]: 3.4 µM; IC50 [2, 12]: 69.7 µM
